US20230399312A1, “SUBSTITUTED PYRIMIDINES AND METHODS OF USE” (THERAVANCE BIOPHARMA R&D IP, LLC, priority 2020, published 2023)

What was measured:
[1] = tested on: TGF-β-stimulated SMAD3 phosphorylation in BEAS-2B cells; assay: Cellular ALK5 potency assay, inhibition of TGF-β stimulated pSMAD3 formation in BEAS-2B cells; assay type: cell-based; details: Homo sapiens, pSMAD3, TGF-β 10 ng/mL, read-out: BEAS2B pIC50 (converted)
In short: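 Read-out is AlphaLISA detection of phospho-SMAD3 in lysates of BEAS-2B human lung epithelial cells. Cells are exposed to compound for 1 hour, then to 10 ng/mL TGF-β (final) for 30 minutes. Values are pIC50 from concentration–response curves.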

[2] = target: T1, recombinant human ALK5 (TGF-βR1) protein (Homo sapiens, UniProt P36897); assay: Biochemical ALK5 (TGF-βR1) assay to measure pKi (LANCE Ultra ULight kinase assay); details: apparent pKi, converted from pIC50 by Cheng-Prusoff
T1 construct: purchased Life Technologies PR9075A
T1 sequence (P36897 34-503): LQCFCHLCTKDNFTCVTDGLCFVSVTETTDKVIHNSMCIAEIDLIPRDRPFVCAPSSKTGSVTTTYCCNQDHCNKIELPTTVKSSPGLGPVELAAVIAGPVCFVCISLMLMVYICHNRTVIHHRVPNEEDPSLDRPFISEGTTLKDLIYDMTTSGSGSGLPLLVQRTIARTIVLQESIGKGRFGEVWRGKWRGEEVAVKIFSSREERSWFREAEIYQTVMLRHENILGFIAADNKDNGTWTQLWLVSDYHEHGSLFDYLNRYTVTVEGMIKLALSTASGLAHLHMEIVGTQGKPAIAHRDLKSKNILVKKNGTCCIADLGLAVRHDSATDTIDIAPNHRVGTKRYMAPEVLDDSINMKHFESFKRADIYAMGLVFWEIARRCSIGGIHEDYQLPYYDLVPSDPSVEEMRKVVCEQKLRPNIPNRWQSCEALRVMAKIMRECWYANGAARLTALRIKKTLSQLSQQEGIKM
In short: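 Cmpd + enzyme, 60 min RT; ATP from 125 μM (5×) stock, 60 min 37 °C; stop 12 mM EDTA/Eu anti-pThr1342 Topo2α Ab (pH 7.0 buffer); TR-FRET 665 nm. DMSO = max, SD-208 = min signal. 4-PL pIC50 → pKi (Cheng-Prusoff).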

SMILES	IC50 [1] [nM]	Ki [2] [nM]
Cc1cccc(-c2nccc(Nc3ccnc(Nc4ccc(N5CCNCC5)c(CC(=O)O)c4)n3)n2)n1 [Compound 95, 2-[5-[[4-[[2-(6-methyl-2-pyridyl)pyrimidin-4-yl]amino]pyrimidin-2-yl]amino]-2-piperazin-1-yl-phenyl]acetic acid]	200 to 1260	0.0398 to 0.316
Cc1cccc(-c2nccc(Nc3ccnc(Nc4csc(C(=O)OCC5CNC5)c4)n3)n2)n1 [Compound 96, azetidin-3-ylmethyl 4-((4-((2-(6-methylpyridin-2-yl)pyrimidin-4-yl)amino)pyrimidin-2-yl)amino)thiophene-2-carboxylate]	25.1 to 158	0.0398 to 0.316
Cc1cccc(-c2nccc(Nc3ccnc(Nc4ccc(CN5CC(C(=O)O[C@H]6CCN(C)C6)C5)cc4)n3)n2)n1 [Compound 97, [(3S)-1-methylpyrrolidin-3-yl] 1-[[4-[[4-[[2-(6-methyl-2-pyridyl)pyrimidin-4-yl]amino]pyrimidin-2-yl]amino]phenyl]methyl] azetidine-3-carboxylate]	25.1 to 158	0.0398 to 0.316
Cc1cccc(-c2nccc(Nc3ccnc(Nc4ccc(N5CC(N)C5)cc4)n3)n2)n1 [Compound 98, N2-[4-(3-aminoazetidin-1-yl)phenyl]-N4-[2-(6-methyl-2-pyridyl)pyrimidin-4-yl]pyrimidine-2,4-diamine]	25.1 to 158	0.0398 to 0.316
Cc1cccc(-c2nccc(Nc3ccnc(Nc4ccc(CN5CC(C)(CO)C5)cc4)n3)n2)n1 [Compound 99, [3-methyl-1-[[4-[[4-[[2-(6-methyl-2-pyridyl)pyrimidin-4-yl]amino]pyrimidin-2-yl]amino]phenyl]methyl]azetidin-3-yl]methanol]	25.1 to 158	≤ 0.0316
Cc1cccc(-c2nccc(Nc3ccnc(Nc4ccc(C(=O)OCC5CNC5)s4)n3)n2)n1 [Compound 100, azetidin-3-ylmethyl 5-[[4-[[2-(6-methyl-2-pyridyl)pyrimidin-4-yl]amino]pyrimidin-2-yl]amino]thiophene-2-carboxylate]	25.1 to 158	0.0398 to 0.316
Cc1cccc(-c2nccc(Nc3ccnc(Nc4ccc(N5CCC(C(=O)OC6CCNC6)CC5)cc4)n3)n2)n1 (stereo not shown) [Compound 101, pyrrolidin-3-yl 1-[4-[[4-[[2-(6-methyl-2-pyridyl)pyrimidin-4-yl]amino]pyrimidin-2-yl]amino]phenyl]piperidine-4-carboxylate]	25.1 to 158	0.0398 to 0.316
Cc1cccc(-c2nccc(Nc3ccnc(Nc4ccc(N5CCN(CC6CCNC6)CC5)cc4)n3)n2)n1 (stereo not shown) [Compound 102, N4-[2-(6-methyl-2-pyridyl)pyrimidin-4-yl]-N2-[4-[4-(pyrrolidin-3-ylmethyl)piperazin-1-yl]phenyl]pyrimidine-2,4-diamine]	25.1 to 158	0.0398 to 0.316
Cc1cccc(-c2nccc(Nc3ccnc(Nc4ccc(CN5CCSCC5)cc4)n3)n2)n1 [Compound 104, N4-[2-(6-methyl-2-pyridyl)pyrimidin-4-yl]-N2-[4-(thiomorpholinomethyl)phenyl] pyrimidine-2,4-diamine]	25.1 to 158	0.0398 to 0.316
Cc1cccc(-c2nccc(Nc3ccnc(Nc4ccc(NS(=O)(=O)CC5CCCNC5)cc4)n3)n2)n1 (stereo not shown) [Compound 106, N-(4-((4-((2-(6-methylpyridin-2-yl)pyrimidin-4-yl)amino)pyrimidin-2-yl)amino)phenyl)-1-(piperidin-3-yl)methanesulfonamide]	25.1 to 158	0.0398 to 0.316
Cc1cccc(-c2nccc(Nc3ccnc(Nc4ccc(S(=O)(=O)N5CCN(C(=O)NC(C)C)CC5)cc4)n3)n2)n1 [Compound 107, N-isopropyl-4-[4-[[4-[[2-(6-methyl-2-pyridyl)pyrimidin-4-yl]amino]pyrimidin-2-yl]amino]phenyl]sulfonyl-piperazine-1-carboxamide]	200 to 1260	0.398 to 3.16
Cc1cccc(-c2nccc(Nc3ccnc(Nc4ccc(S(N)(=O)=O)cc4)n3)n2)n1 [Compound 108, 4-((4-((2-(6-methylpyridin-2-yl)pyrimidin-4-yl)amino)pyrimidin-2-yl)amino)benzenesulfonamide]	25.1 to 158	0.0398 to 0.316
Cc1cccc(-c2nccc(Nc3ccnc(Nc4ccc(CN5CCN(C(C)(C)C)CC5)cc4)n3)n2)n1 [Compound 109, N2-[4-[(4-tert-butylpiperazin-1-yl)methyl]phenyl]-N4-[2-(6-methyl-2-pyridyl)pyrimidin-4-yl]pyrimidine-2,4-diamine]	25.1 to 158	0.0398 to 0.316
Cc1cccc(-c2nccc(Nc3ccnc(Nc4ccc(NC(=O)N5CCN(C(C)C)CC5)cc4)n3)n2)n1 [Compound 110, 4-isopropyl-N-[4-[[4-[[2-(6-methyl-2-pyridyl)pyrimidin-4-yl]amino]pyrimidin-2-yl]amino]phenyl]piperazine-1-carboxamide]	25.1 to 158	0.0398 to 0.316
Cc1cccc(-c2nccc(Nc3ccnc(Nc4ccc(F)c(CN5CCNCC5)c4)n3)n2)n1 [Compound 111, N2-[4-fluoro-3-(piperazin-1-ylmethyl)phenyl]-N4-[2-(6-methyl-2-pyridyl)pyrimidin-4-yl]pyrimidine-2,4-diamine]	25.1 to 158	0.0398 to 0.316
Cc1cccc(-c2nccc(Nc3ccnc(Nc4ccc(CN5CCCC(C(=O)N6CCNCC6)C5)cc4)n3)n2)n1 (stereo not shown) [Compound 112, [1-[[4-[[4-[[2-(6-methyl-2-pyridyl)pyrimidin-4-yl]amino]pyrimidin-2-yl]amino]phenyl]methyl]-3-piperidyl]-piperazin-1-yl-methanone]	25.1 to 158	0.0398 to 0.316
CC[C@H](C)OC(=O)C1CN(c2ccc(Nc3nccc(Nc4ccnc(-c5cccc(C)n5)n4)n3)cc2)CCN1 (stereo partly drawn) [Compound 113, [(1S)-1-methylpropyl] 4-[4-[[4-[[2-(6-methyl-2-pyridyl)pyrimidin-4-yl]amino]pyrimidin-2-yl]amino]phenyl]piperazine-2-carboxylate]	25.1 to 158	0.0398 to 0.316
Cc1cccc(-c2nccc(Nc3ccnc(Nc4ccc(C5CCNCC5)cn4)n3)n2)n1 [Compound 114, N4-[2-(6-methyl-2-pyridyl)pyrimidin-4-yl]-N2-[5-(4-piperidyl)-2-pyridyl]pyrimidine-2,4-diamine]	200 to 1260	0.398 to 3.16
Cc1cccc(-c2nccc(Nc3ccnc(Nc4ccc(C(=O)N5CCNCC5)s4)n3)n2)n1 [Compound 115, [5-[[4-[[2-(6-methyl-2-pyridyl)pyrimidin-4-yl]amino]pyrimidin-2-yl]amino]-2-thienyl]-piperazin-1-yl-methanone]	25.1 to 158	0.0398 to 0.316
Cc1cccc(-c2nccc(Nc3ccnc(Nc4ccc(N(C)[C@H]5CCNC5)cc4)n3)n2)n1 [Compound 116, N4-[2-(6-methyl-2-pyridyl)pyrimidin-4-yl]-N2-[4-[methyl-[(3S)-pyrrolidin-3-yl]amino]phenyl]pyrimidine-2,4-diamine]	25.1 to 158	0.0398 to 0.316
Cc1cccc(-c2nccc(Nc3ccnc(Nc4cccc(NCC5CNC5)c4)n3)n2)n1 [Compound 118, N2-[3-(azetidin-3-ylmethylamino)phenyl]-N4-[2-(6-methyl-2-pyridyl)pyrimidin-4-yl]pyrimidine-2,4-diamine]	25.1 to 158	0.0398 to 0.316
Cc1cccc(-c2nccc(Nc3ccnc(Nc4ccc(S(N)(=O)=O)cn4)n3)n2)n1 [Compound 119, 6-[[4-[[2-(6-methyl-2-pyridyl)pyrimidin-4-yl]amino]pyrimidin-2-yl]amino]pyridine-3-sulfonamide]	25.1 to 158	3.98 to 31.6
Cc1cccc(-c2nccc(Nc3ccnc(Nc4ccc(N5CCNCC5)c(F)c4)n3)n2)n1 [Compound 120, N2-(3-fluoro-4-piperazin-1-yl-phenyl)-N4-[2-(6-methyl-2-pyridyl)pyrimidin-4-yl]pyrimidine-2,4-diamine]	25.1 to 158	0.0398 to 0.316
Cc1cccc(-c2nccc(Nc3ccnc(Nc4ccc(N5CCNCC5)cn4)n3)n2)n1 [Compound 121, N4-(2-(6-methylpyridin-2-yl)pyrimidin-4-yl)-N2-(5-(piperazin-1-yl)pyridin-2-yl)pyrimidine-2,4-diamine]	25.1 to 158	0.398 to 3.16
Cc1cccc(-c2nccc(Nc3ccnc(Nc4ccc(S(=O)(=O)N(C)C5CCNCC5)cc4)n3)n2)n1 [Compound 122, N-methyl-4-[[4-[[2-(6-methyl-2-pyridyl)pyrimidin-4-yl]amino]pyrimidin-2-yl]amino]-N-(4-piperidyl)benzenesulfonamide]	25.1 to 158	0.0398 to 0.316
Cc1cccc(-c2nccc(Nc3ccnc(Nc4ccc(N5CCC(N6CCCC6)CC5)cc4)n3)n2)n1 [Compound 123, N4-[2-(6-methyl-2-pyridyl)pyrimidin-4-yl]-N2-[4-(4-pyrrolidin-1-yl-1-piperidyl)phenyl]pyrimidine-2,4-diamine]	25.1 to 158	≤ 0.0316
